Source: patent US20220330549A1, “USE OF N-BENZYLBENZAMIDE-BASED COMPOUND AS HERBICIDE” (Northwest A&F University, priority 2020, published 2022)

Tests used:
Format in all cases: in vivo
Digitaria sanguinalis [1] = assay: Herbicidal activity test for indoor pre-emergence soil treatment; set-up: key: 1-9 levels; higher = more weed remaining vs blank control; conditions: 150 g a.i./ha, visual inspection 21 days after treatment
How it was run: (§1)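 Pre-emergence test following NY/T 1155.3-2006: weed seeds were sown in moistened neutral sandy loam (≤2% organic matter) and covered with 0.5–2.0 cm of soil. After 24 h, the soil was sprayed with a 10% EC diluted in water at 150 g(a.i.)/ha. Damage was scored visually on a 1–9 scale at 21 days.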

Amaranthus retroflexus [2] = assay: as above; set-up: key: 1-9 levels; higher = more weed remaining vs blank control; conditions: 150 g a.i./ha, visual inspection 21 days after treatment
How it was run: as §1

Broadleaf weed = assay: Post-emergence herbicidal activity test in a paddy field; set-up: key: level scale; higher level = more weed left vs blank control; conditions: 150 g a.i./ha (penoxsulam control 250 g(a.i.)/h)
How it was run: (§2)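 Efficacy was visually estimated 15 and 30 days after spraying, grading weed coverage relative to an untreated neighbouring plot (level 2 = 0 to 2.5%, level 9 = 67.6 to 100%). Treatments were 150 g(a.i.)/ha from 10% emulsifiable concentrates applied at the 4-5 leaf rice stage, four repeats of 50 m^2 each.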

Gramineae = assay: as above; set-up: key: level scale; higher level = more weed left vs blank control; conditions: 150 g a.i./ha (penoxsulam control 250 g(a.i.)/h)
How it was run: as §2

Cyperaceae = assay: as above; set-up: key: level scale; higher level = more weed left vs blank control; conditions: 150 g a.i./ha (penoxsulam control 250 g(a.i.)/h)
How it was run: as §2

Piemarker [3] = assay: Herbicidal activity test for indoor post-emergence spraying on stems and leaves; set-up: key: grade level by weed remaining vs blank control, e.g. 5 = 10.1-15%; conditions: 150 g a.i./ha, visual inspection 21 days after treatment
How it was run: (§3)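 Greenhouse-grown weeds, post-emergence foliar spray (NY/T 1155.4-2006 method); visual scoring at 21 d post-treatment as levels vs. untreated blank control (e.g., level 5 = 10.1–15%, level 8 = 35.1–67.5% of control weed).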

Digitaria sanguinalis [4] = assay: as above; set-up: key: grade level by weed remaining vs blank control, e.g. 5 = 10.1-15%; conditions: 150 g a.i./ha, visual inspection 21 days after treatment
How it was run: as §3

Humulus scandens [5] = assay: as above; set-up: key: grade level by weed remaining vs blank control, e.g. 5 = 10.1-15%; conditions: 150 g a.i./ha, visual inspection 21 days after treatment
How it was run: as §3

green bristlegrass [6] = assay: as above; set-up: key: grade level by weed remaining vs blank control, e.g. 5 = 10.1-15%; conditions: 150 g a.i./ha, visual inspection 21 days after treatment
How it was run: as §3

Amaranthus retroflexus [7] = assay: as above; set-up: key: grade level by weed remaining vs blank control, e.g. 5 = 10.1-15%; conditions: 150 g a.i./ha, visual inspection 21 days after treatment
How it was run: as §3

Barnyard grass [8] = assay: as above; set-up: key: grade level by weed remaining vs blank control, e.g. 5 = 10.1-15%; conditions: 150 g a.i./ha, visual inspection 21 days after treatment
How it was run: as §3

Piemarker [9] = assay: Herbicidal activity test for indoor pre-emergence soil treatment; set-up: key: level 1-9; higher = more weed remaining vs blank control; conditions: 150 g a.i./ha, visual inspection 21 days after treatment
How it was run: as §1

green bristlegrass [10] = assay: as above; set-up: key: level 1-9; higher = more weed remaining vs blank control; conditions: 150 g a.i./ha, visual inspection 21 days after treatment
How it was run: as §1

Barnyard grass [11] = assay: as above; set-up: key: level 1-9; higher = more weed remaining vs blank control; conditions: 150 g a.i./ha, visual inspection 21 days after treatment
How it was run: as §1

Solanum nigrum = assay: Field test for weed control in a corn field; conditions: for Post-emergence weed control effect, Solanum nigrum: 150 g a.i./ha, 30 days after treatment; for controlling effect on Solanum nigrum: 150 g(a.i.)/ha, 21 days after treatments
How it was run: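 In a corn field trial based on GB/T 17980.42-2000, 10% emulsifiable concentrates diluted in water were sprayed at 150 g(a.i.)/ha at the 2 to 5 leaf stage of corn. Each treatment used 20 m^2 plots and was repeated 4 times, with 25% mesotrione oil dispersion as the reference agent. Solanum nigrum damage was scored on a 1-9 scale against blank control plots.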

Acalypha australis = assay: Field test for weed control in a corn field; conditions: for Post-emergence weed control effect, Acalypha australis: 150 g a.i./ha, after treatment; for controlling effect on Acalypha australis: 150 g(a.i.)/ha, 21 days after treatments
How it was run: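 Herbicidal activity against weeds was assessed in corn plots by the GB/T 17980.42-2000 method. Corn at the 2–5 leaf stage received water sprays of 10% emulsifiable concentrates at 150 g(a.i.)/ha, four repeats per treatment over 20 m^2. A 25% mesotrione oil dispersion was the reference. Damage symptoms and severity were rated on levels 1-9 relative to weeds in the blank control area.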

Digitaria sanguinalis [12] = assay: Field test for weed control in a corn field; conditions: for Post-emergence weed control effect, Digitaria sanguinalis: 150 g a.i./ha, after treatment; for controlling effect on Digitaria sanguinalis: 150 g(a.i.)/ha, 21 days after treatments
How it was run: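 Field trial in a corn field following GB/T 17980.42-2000. Test compounds were formulated as 10% emulsifiable concentrates, diluted in water and sprayed post-emergence at 150 g(a.i.)/ha when corn had 2 to 5 leaves, with 4 replicates on 20 m^2 plots. Control of Digitaria sanguinalis was scored on a 1-9 scale based on weed damage relative to the untreated blank area.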

Portulaca oleracea = assay: Field test for weed control in a corn field; conditions: for Post-emergence weed control effect, Portulaca oleracea: 150 g a.i./ha, after treatment; for controlling effect on Portulaca oleracea: 150 g(a.i.)/ha, 21 days after treatments
How it was run: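 Post-emergence weed control was evaluated in a corn field by the GB/T 17980.42-2000 method. Emulsifiable concentrates (10%) in water were applied as sprays at 150 g(a.i.)/ha at the 2-5 leaf corn stage, in four replicate 20 m^2 plots. A 25% mesotrione oil dispersion served as control agent. Effects were graded 1-9 relative to weed remaining in blank control areas.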

Chenopodium album = assay: Field test for weed control in a corn field; conditions: for Post-emergence weed control effect, Chenopodium album: 150 g a.i./ha, after treatment; for controlling effect on Chenopodium album: 150 g(a.i.)/ha, 21 days after treatments
How it was run: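 Field weed-control testing in corn, run per GB/T 17980.42-2000, scored Chenopodium album on a 1-9 level scale, where each level matches a percentage range of weed remaining relative to the blank control area. Sprays of 10% emulsifiable concentrates in water delivered 150 g(a.i.)/ha at the corn 2-leaf to 5-leaf stage on 20 m^2 plots, four replicates each. Mesotrione 25% oil dispersion served as reference.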

nutgrass flatsedge = assay: Field test for weed control in a corn field; conditions: for Post-emergence weed control effect, Nutgrass flatsedge: 150 g a.i./ha, after treatment; for controlling effect on nutgrass flatsedge: 150 g(a.i.)/ha, 21 days after treatments
How it was run: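 Herbicidal effect on nutgrass flatsedge was measured in a field planted with corn, using the GB/T 17980.42-2000 method. Emulsifiable concentrates (10%) in water were sprayed at 150 g(a.i.)/ha during the 2-leaf to 5-leaf corn stage, on 20 m^2 plots repeated 4 times. 25% mesotrione oil dispersion was the control agent. Activity was scored from 1 to 9 by weed remaining relative to blank control plots.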

green bristlegrass [13] = assay: Field test for weed control in a corn field; conditions: for Post-emergence weed control effect, Green bristlegrass: 150 g a.i./ha, after treatment; for controlling effect on green bristlegrass: 150 g(a.i.)/ha, 21 days after treatments
How it was run: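 Herbicidal activity against green bristlegrass was assessed in corn field plots of 20 m^2 per GB/T 17980.42-2000. Test agents, formulated as 10% emulsifiable concentrates, were applied in water at 150 g(a.i.)/ha at the corn 2 leaves to 5 leaves stage, repeated 4 times. A 25% mesotrione oil dispersion served as the control agent, and weed damage was rated on levels 1-9.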

goosegrass = assay: Field test for weed control in a corn field; conditions: for Post-emergence weed control effect, Goose grass: 150 g a.i./ha, after treatment; for controlling effect on goosegrass: 150 g(a.i.)/ha, 21 days after treatments
How it was run: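 In this field trial in corn, run per GB/T 17980.42-2000, test agents prepared as 10% emulsifiable concentrates were applied in water as sprays at 150 g(a.i.)/ha at the 2- to 5-leaf corn stage. Each treatment covered 20 m^2 and was repeated 4 times. Goosegrass control was scored 1-9 relative to weed remaining in blank control areas.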

Convolvulus arvensis = assay: Field test for weed control in a corn field; conditions: for Post-emergence weed control effect, Convolvulus arvensis: 150 g a.i./ha, after treatment; for controlling effect on Convolvulus arvensis: 150 g(a.i.)/ha, 21 days after treatments
How it was run: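 Post-emergence herbicidal activity on Convolvulus arvensis was scored in a corn field on a 1-9 scale, based on symptoms and damage severity. Each level corresponds to the weed remaining as a percentage of the blank control area. Sprays of 10% emulsifiable concentrate at 150 g(a.i.)/ha went on at the corn 2–5 leaf stage, with four replicates of 20 m^2 per treatment.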

Amaranthus retroflexus [14] = assay: Field test for weed control in a corn field; conditions: for Post-emergence weed control effect, Amaranthus retroflexus: 150 g a.i./ha, 30 days after treatment; for controlling effect on Amaranthus retroflexus: 150 g(a.i.)/ha, 21 days after treatments
How it was run: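 Post-emergence control of Amaranthus retroflexus was assessed in corn plots using the GB/T 17980.42-2000 method. Emulsifiable concentrates (10%) in water were applied by spraying at the 2- to 5-leaf crop stage on 20 m^2 plots, four replicates each, alongside a mesotrione 25% oil dispersion reference. Herbicidal activity was scored on 1-9 levels by weed amount relative to blank control areas.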

Barnyard grass [15] = assay: Field test for weed control in a corn field; conditions: for Post-emergence weed control effect, Barnyard grass: 150 g a.i./ha, 30 days after treatment; for controlling effect on barnyard grass: 150 g(a.i.)/ha, 21 days after treatments
How it was run: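 Herbicidal activity against barnyard grass was assessed in corn field plots of 20 m^2, with four replicates per treatment. Compounds were applied as water-diluted 10% emulsifiable concentrates at 150 g(a.i.)/ha at the 2-5 leaf corn stage, with 25% mesotrione oil dispersion as the reference agent. Damage was scored on a 1-9 scale against untreated blank plots.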

Humulus scandens [16] = assay: Herbicidal activity test for indoor pre-emergence soil treatment; conditions: 150 g a.i./ha, visual inspection 21 days after treatment
How it was run: as §1

Row | Compound | Herbicidal Activity Digitaria sanguinalis (Digitaria sanguinalis [1]) | Herbicidal Activity Amaranthus retroflexus (Amaranthus retroflexus [2]) | Herbicidal activity 15 days after treatment Broadleaf weed (Broadleaf weed) | Herbicidal activity 30 days after treatment Broadleaf weed (Broadleaf weed) | Herbicidal activity 15 days after treatment Gramineae (Gramineae) | Herbicidal activity 30 days after treatment Gramineae (Gramineae) | Herbicidal activity 15 days after treatment Cyperaceae (Cyperaceae) | Herbicidal activity 30 days after treatment Cyperaceae (Cyperaceae) | Herbicidal Activity Piemarker (Piemarker [3]) | Herbicidal Activity Digitaria sanguinalis (Digitaria sanguinalis [4]) | Herbicidal Activity Humulus scandens (Humulus scandens [5]) | Herbicidal Activity Green bristlegrass (green bristlegrass [6]) | Herbicidal Activity Amaranthus retroflexus (Amaranthus retroflexus [7]) | Herbicidal Activity Barnyard grass (Barnyard grass [8]) | Herbicidal Activity Piemarker (Piemarker [9]) | Herbicidal Activity Green bristlegrass (green bristlegrass [10]) | Herbicidal Activity Barnyard grass (Barnyard grass [11]) | Post-emergence weed control effect, Solanum nigrum (Solanum nigrum) | controlling effect on Solanum nigrum (Solanum nigrum) | Post-emergence weed control effect, Acalypha australis (Acalypha australis) | further results
1 | Cc1cccc(C(=O)NCc2cc(F)cc(Cl)c2)n1 [Compound B27] | 1 | 1 | 1 | 1 | 1 | 1 | 1 | 1 | 1 | 1 | 1 | 1 | 1 | 1 | 1 | 1 | 1 | 1 | 1 | 1 | controlling effect on Acalypha australis (Acalypha australis): 1; Post-emergence weed control effect, Digitaria sanguinalis (Digitaria sanguinalis [12]): 1; controlling effect on Digitaria sanguinalis (Digitaria sanguinalis [12]): 1; Post-emergence weed control effect, Portulaca oleracea (Portulaca oleracea): 1; controlling effect on Portulaca oleracea (Portulaca oleracea): 1; Post-emergence weed control effect, Chenopodium album (Chenopodium album): 1; controlling effect on Chenopodium album (Chenopodium album): 1; Post-emergence weed control effect, Nutgrass flatsedge (nutgrass flatsedge): 1; controlling effect on nutgrass flatsedge (nutgrass flatsedge): 1; Post-emergence weed control effect, Green bristlegrass (green bristlegrass [13]): 1; controlling effect on green bristlegrass (green bristlegrass [13]): 1; Post-emergence weed control effect, Goose grass (goosegrass): 1; controlling effect on goosegrass (goosegrass): 1; Post-emergence weed control effect, Convolvulus arvensis (Convolvulus arvensis): 1; controlling effect on Convolvulus arvensis (Convolvulus arvensis): 1; Post-emergence weed control effect, Amaranthus retroflexus (Amaranthus retroflexus [14]): 1; controlling effect on Amaranthus retroflexus (Amaranthus retroflexus [14]): 1; Post-emergence weed control effect, Barnyard grass (Barnyard grass [15]): 1; controlling effect on barnyard grass (Barnyard grass [15]): 1; Herbicidal Activity Humulus scandens (Humulus scandens [16]): 1
2 | Cc1cccc(C(=O)NCc2ccc(F)c(Cl)c2)n1 [Compound B30] | 1 | 1 | 1 | 1 | 1 | 1 | 1 | 2 (equivalent to 0 to 2.5% of the weed in the blank control area) | 1 | 1 | 1 | 1 | 1 | 1 | 1 | 1 | 1 | 1 | 1 | 1 | controlling effect on Acalypha australis (Acalypha australis): 1; Post-emergence weed control effect, Digitaria sanguinalis (Digitaria sanguinalis [12]): 1; controlling effect on Digitaria sanguinalis (Digitaria sanguinalis [12]): 1; Post-emergence weed control effect, Portulaca oleracea (Portulaca oleracea): 1; controlling effect on Portulaca oleracea (Portulaca oleracea): 1; Post-emergence weed control effect, Chenopodium album (Chenopodium album): 1; controlling effect on Chenopodium album (Chenopodium album): 1; Post-emergence weed control effect, Nutgrass flatsedge (nutgrass flatsedge): 1; controlling effect on nutgrass flatsedge (nutgrass flatsedge): 1; Post-emergence weed control effect, Green bristlegrass (green bristlegrass [13]): 1; controlling effect on green bristlegrass (green bristlegrass [13]): 1; Post-emergence weed control effect, Goose grass (goosegrass): 1; controlling effect on goosegrass (goosegrass): 1; Post-emergence weed control effect, Convolvulus arvensis (Convolvulus arvensis): 1; controlling effect on Convolvulus arvensis (Convolvulus arvensis): 1; Post-emergence weed control effect, Amaranthus retroflexus (Amaranthus retroflexus [14]): 1; controlling effect on Amaranthus retroflexus (Amaranthus retroflexus [14]): 1; Post-emergence weed control effect, Barnyard grass (Barnyard grass [15]): 1; controlling effect on barnyard grass (Barnyard grass [15]): 1; Herbicidal Activity Humulus scandens (Humulus scandens [16]): 2 (equivalent to 0 to 2.5% of the weed in the blank control area)
